Results published in article PMC10472861, “Potent inhibition of human tyrosinase inhibitor by verproside from the whole plant of Pseudolysimachion rotundum var. subintegrum” (Journal of Enzyme Inhibition and Medicinal Chemistry, 2023).
Entries after “also recorded” stand apart in the source; their conditions may differ.

Key:
[1] = target: T1, Mushroom tyrosinase (mTyr) (Agaricus bisporus, UniProt C7FF04); assay: Mushroom tyrosinase inhibition, L-tyrosine substrate (monophenolase); assay type: biochemical; settings: for Type of inhibition (monophenolase): L-tyrosine, Lineweaver-Burk and Dixon plots; for inhibition at 100 µM: read-out: Mushroom Tyrosinase L-Tyrosine 100 µM inhibition (%)
T1 construct: purchased Sigma Chemical Co. T3824-50KU
Target sequence in this assay (C7FF04 1-392): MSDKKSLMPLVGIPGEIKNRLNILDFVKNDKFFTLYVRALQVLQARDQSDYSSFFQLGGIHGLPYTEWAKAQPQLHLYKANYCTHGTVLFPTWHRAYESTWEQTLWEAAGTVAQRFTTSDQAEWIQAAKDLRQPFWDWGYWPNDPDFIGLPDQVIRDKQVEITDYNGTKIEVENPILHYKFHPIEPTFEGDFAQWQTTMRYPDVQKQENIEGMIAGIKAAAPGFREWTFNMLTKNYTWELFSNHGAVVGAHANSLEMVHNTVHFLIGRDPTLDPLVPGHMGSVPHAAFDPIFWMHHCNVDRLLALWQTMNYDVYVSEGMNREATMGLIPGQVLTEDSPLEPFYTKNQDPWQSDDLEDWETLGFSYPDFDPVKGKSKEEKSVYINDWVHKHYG

[2] = target: T1, Mushroom tyrosinase (mTyr); assay: Mushroom tyrosinase inhibition, L-DOPA substrate (diphenolase); assay type: biochemical
Target sequence in this assay (C7FF04 1-392 limits assumed): as the sequence (C7FF04 1-392) above

[3] = target: T2, recombinant human tyrosinase (hTyr) (Homo sapiens, UniProt P14679); assay: Human tyrosinase inhibition, L-tyrosine substrate; assay type: biochemical
T2 construct: His-tag; purchased Enzo Life Sciences BML-SE535-0100
T2 sequence (P14679 19-529): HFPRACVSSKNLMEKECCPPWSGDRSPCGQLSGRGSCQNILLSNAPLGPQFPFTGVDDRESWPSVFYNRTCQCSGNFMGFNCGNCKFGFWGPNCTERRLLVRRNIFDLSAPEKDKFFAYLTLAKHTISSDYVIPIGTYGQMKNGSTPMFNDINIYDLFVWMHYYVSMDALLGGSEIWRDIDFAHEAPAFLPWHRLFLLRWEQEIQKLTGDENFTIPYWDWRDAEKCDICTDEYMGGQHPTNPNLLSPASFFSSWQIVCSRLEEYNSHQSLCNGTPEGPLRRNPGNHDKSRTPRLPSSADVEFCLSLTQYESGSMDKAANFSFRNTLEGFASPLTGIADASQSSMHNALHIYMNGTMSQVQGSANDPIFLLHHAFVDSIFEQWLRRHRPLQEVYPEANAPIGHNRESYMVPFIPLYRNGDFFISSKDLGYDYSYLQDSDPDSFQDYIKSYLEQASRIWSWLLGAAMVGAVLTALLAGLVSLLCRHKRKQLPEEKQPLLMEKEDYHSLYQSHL

[4] = target: T2, recombinant human tyrosinase (hTyr); assay: Human tyrosinase inhibition, L-DOPA substrate; assay type: biochemical
Description: The enzymatic activities of tyrosinase were tested in vitro with the substrates and inhibitors known to interact with mushroom and mammalian tyrosinases (http://www.brenda-enzymes.info). The Michaelis-Menten constant (Km) of proteins was calculated from Lineweaver-Burk plots for 1/V0 versus 1/[substrate]. Mushroom tyrosinase (mTyr, EC 1.14.18.1, Sigma Chemical Co., T3824-50KU) was used as described previously[9] with some modifications with either 3,4-Dihydroxy-L-phenylalanine (L-DOPA, D9628-5G) or L-tyrosine (T3754-50G) as the substrate. In the spectrophotometric experiments, the initial velocity (vi) of enzymatic activity was monitored by observing dopachrome formation at 475 nm with a UV–vis spectrophotometer (SpectraMax M4, Molecular Devices, Sunnyvale, CA, USA) at 37 °C. The reaction was performed in a 96-well plate. All samples were first dissolved in dimethyl sulfoxide (DMSO) at a concentration of 2 mM. […] The activity of recombinant human tyrosinas (hTyr, His-tag, Enzo® Life Sciences, NY, USA, Cat. No. BML-SE535-0100) was determined using L-DOPA as a substrate, and the procedure involved a previously described absorption assay. […] The reaction was incubated for 10 min at 37 °C and was monitored at 475 nm for dopachrome formation on a SpectraMax M4 multimode detection platform (Molecular Devices). […]

mushroom tyrosinase [5] = target: T3, mushroom tyrosinase (Agaricus bisporus, UniProt C7FF04); assay: Affinity-based ultrafiltration UPLC-QTOF-MS binding experiment; settings: for after tyrosinase (area): UPLC-QTOF-MS peak area in 1000 ppm extract after incubation with mTyr; for Relative metabolite intensity upon treatment with mTyr: extract treated with mTyr, 15 min preincubation
T3 construct: purchased Sigma Chemical Co. T3824-50KU
Description: (§1) Affinity-based ultrafiltration was performed as previously described by Zuo et al. and Wang et al.[15]^,[19]^,[23]. First, […] of 0.25 M phosphate buffer (pH 6.8) with 10% glycerol was added to 13 μL of mushroom tyrosinase (144 U in the same phosphate buffer solution) and 100 μL of 1000 mg/mL extract (the test solution was consistently 3.3%). The final concentration of the extract was adjusted to 1000 ppm. The mixture was incubated for 15 or 50 min at 37 °C on a plate shaker. Then, the sample was centrifuged at 13,000 rpm for 20 min, and the supernatant was collected for analysis. The supernatant solution was filtered through a membrane (PTFE 0.2 μm, hydrophobic, Advantec, Japan), and 2 μL of each solution was injected for UPLC-PDA-QTOF-MS analysis.
(§2) The compounds from the P. rotundum var. subintegrum extract were analysed by UPLC-PDA-ESI-QTOF-MS. […] MS was performed in negative ion mode ([M − H]^−). N2 was used as the desolvation gas, the desolvation temperature was set to 350 °C at a flow rate of 400 L/h with a source temperature of 100 °C. The capillary and cone voltages were set to 2300 and 50 V, respectively. The data for each sample were collected with a scan time of 0.25 s and a 0.01 s interscan delay. Exact MS, MS/MS, and elemental analysis were confirmed using MassLynx software incorporated into the Waters instrument.

mushroom tyrosinase [6] = assay: as above; settings: UPLC-QTOF-MS peak area in 1000 ppm extract, not exposed to enzyme
Description: as §1, §2

mushroom tyrosinase [7] = target: T3, mushroom tyrosinase; assay: Affinity-based time-dependent assay (slow-binding kinetics); assay type: biochemical; settings: for Time dependence of inhibition: mushroom tyrosinase, L-tyrosine
Description: Time-dependent assays were carried out using 144 U of mushroom tyrosinase and L-tyrosine as the substrate in 0.25 M phosphate buffer (pH 6.8) at 30 °C. […] The data were analysed using a nonlinear regression program [SigmaPlot (SPCC Inc., Chicago, IL)] to give the individual parameters for each curve; vi (initial velocity), vs (steady–state velocity), kobs (apparent first–order rate constant for the transition from vi to vs), A (intensity), A0 (included to correct any possible deviation in the baseline), and Ki^app (apparent Ki) according to Equations. 2–4[26–28]: (2) A=vst + (vi–vs)[1 – exp (–kobst)]/kobs (3) v/v0= exp(−kobst) (4) kobs=k6+ [(k5 × [I])/(Ki^app + [I])]

B16F10 cells = assay: CCK-8 cell viability assay, B16F10; assay type: cell-based, murine; settings: 48 h
Description: (§3) The B16F10 melanoma and Melan-A normal murine melanocyte cells were purchased from the American Type Culture Collection (ATCC), respectively. The B16F10 cells were cultured in complete Dulbecco's Modified Eagle's Medium (DMEM high glucose, Gibco) supplemented with 10% (v/v) Fetal Bovine Serum (FBS, Gibco, USA), 100 U/mL penicillin, 50 μg/ml streptomycin. The Melan-A cells were cultured in RPMI -1640 medium supplemented with 10% FBS, 2 mM L -glutamine, 200 nM 12 -o-tetradecanoyl phorbol -13-acetate (Sigma, USA), 100 U/mL penicillin, 50 μ g/ml streptomycin, and grown in a humidified atmosphere containing 5% CO 2 in ai r at 37°C.
(§4) The cells were seeded in 96 -well plates at a density of 5 × 10^3 cells/well in cultured medium. The cells were treated with the corresponding concentrations of verproside for 48 h. Cell viability was measured in triplicate using a Cell Counting Kit -8 (CCK -8; Dojindo Molecular Technologies, Rockville, MD, USA) . Absorbance was determined using an Epoch microplate reader (BioTek Instruments, Winooski, VT, USA, #CK04) and calculated as a relative percentage (%) of the control […]
(§5) Figure S4 . The cell viability by verproside in B16F10 and Melna -A cells. (A) CCK -8 assays in B16F10 cells. (B) CCK -8 assays in Melna -A cells.
(§6) (1 picture or pasted object on this page, not shown here)

Melan-A cells = assay: CCK-8 cell viability assay, Melan-A; assay type: cell-based, murine; settings: 48 h
Description: as §3, §4, §5, §6

[8] = mTyr, L-tyrosine substrate (monophenolase), read-out: Mushroom Tyrosinase L-Tyrosine IC50
[9] = mTyr, L-DOPA substrate, read-out: Mushroom Tyrosinase L-DOPA IC50

T3 sequence (C7FF04 1-392): as the sequence (C7FF04 1-392) above

Row | Structure (SMILES) | IC50 [1, 8] | inhibition at 100 µM [1] | IC50 [2, 9] | after tyrosinase (area) (mushroom tyrosinase [5]) | Relative metabolite intensity upon treatment with mTyr (mushroom tyrosinase [5]) | Control (area) (mushroom tyrosinase [6]) | further results
1 | O=C(OC1C2C=COC(OC3OC(CO)C(O)C(O)C3O)C2C2(CO)OC12)c1ccc(O)c(O)c1 (centres unmarked) [Verproside (1), Verproside] | 31.2 ± 2.1 µM | 98.4% | 177 ± 33.1 µM | 61907 area | significantly reduced | 112306 area | Ki ([1]; mTyr, L-tyrosine (monophenolase), read-out: Ki (inhibition constant)): 5.1 µM; Type of inhibition (monophenolase) ([1]; mTyr): competitive inhibition; Type of inhibition (monophenolase) ([1]; mTyr, listed as verproside): competitive; Type of inhibition (diphenolase) ([2]; mTyr diphenolase activity): competitive inhibition; IC50 ([3]; hTyr, L-tyrosine substrate): 197 µM; Efficacy relative to positive control kojic acid in hTyr ([3]; ratio of hTyr IC50 values, kojic acid / verproside): 5.6 fold; IC50 [4]: 843 µM; k5 (mushroom tyrosinase [7]; fit of kobs to Equation (4)): 0.04496 s⁻¹; k6 (mushroom tyrosinase [7]; fit of kobs to Equation (4)): 0.00001103 s⁻¹; Ki (mushroom tyrosinase [7]; fit of kobs to Equation (4), read-out: Ki^app (apparent Ki)): 2400 µM; Time dependence of inhibition (mushroom tyrosinase [7]; listed as verproside): time-dependent; also recorded: slow-binding; Time dependence of inhibition (mushroom tyrosinase [7]; listed as verproside (1)): time-dependent inhibition; Cell viability (B16F10 cells): did not significantly affect cell viability; Cell viability (Melan-A cells): did not significantly affect cell viability
2 | O=C(OC1C2C=COC(OC3OC(CO)C(O)C(O)C3O)C2C(O)(CO)C1Cl)c1ccc(O)c(O)c1 (centres unmarked) [Longifolioside A (2), Longifolioside A] | 193 ± 10.5 µM | 36% | > 200 µM | 3852 area | significantly reduced | 10677 area | –
3 | O=C(OC1C2CC3OCC(O)(C1Cl)C2C(OC1OC(CO)C(O)C(O)C1O)O3)c1ccc(O)c(O)c1 (centres unmarked) [Piscroside C (6), Piscroside C] | > 200 µM | 6.7% | > 200 µM | 22171 area | – | 44999 area | –
4 | COc1ccc(C(=O)OC2C3C=COC(OC4OC(CO)C(O)C(O)C4O)C3C3(CO)OC23)cc1O (centres unmarked) [Isovanillyl catapol (7), Isovanillyl catapol] | > 200 µM | 10.1% | > 200 µM | 8093 area | – | 12844 area | –
5 | O=C(/C=C/c1ccc(O)c(O)c1)O[C@@H]1C2C=CO[C@H](O[C@@H]3O[C@H](CO)[C@@H](O)[C@H](O)[C@H]3O)C2[C@]2(CO)O[C@H]12 (some centres unmarked) [Verminoside (4), Verminoside] | > 200 µM | 8.9% | > 200 µM | 2886 area | significantly reduced | 16481 area | –
6 | COc1ccc(C(=O)OC2C3C=COC(OC4OC(CO)C(O)C(O)C4O)C3C3(CO)OC23)cc1OC (centres unmarked) [6-O-Veratroyl catalpol (9), 6-O-Veratroyl catalpol] | > 200 µM | 6.1% | > 200 µM | 11932 area | – | 15756 area | –
7 | O=C(O[C@H]1[C@@H]2C=CO[C@@H](O[C@@H]3O[C@H](CO)[C@@H](O)[C@H](O)[C@H]3O)[C@@H]2[C@@]2(CO)O[C@@H]12)c1ccc(O)cc1 [Catalposide (3), Catalposide] | > 200 µM | 9.9% | > 200 µM | 21250 area | – | 26121 area | –
8 | COc1ccc(/C=C/C(=O)O[C@H]2[C@@H]3C=CO[C@@H](O[C@@H]4O[C@H](CO)[C@@H](O)[C@H](O)[C@H]4O)[C@@H]3[C@@]3(CO)O[C@@H]23)cc1O [Minecoside (8), Minecoside] | 132 ± 8.3 µM | 41.7% | > 200 µM | 465 area | – | 976 area | –
9 | COc1cc(C(=O)O[C@H]2[C@@H]3C=CO[C@@H](O[C@@H]4O[C@H](CO)[C@@H](O)[C@H](O)[C@H]4O)[C@@H]3[C@@]3(CO)O[C@@H]23)ccc1O [Picroside II (5), Picroside II] | – | 5.3% | – | 12194 area | – | 17798 area | IC50 [1]: > 200 µM; IC50 [2]: > 200 µM
